ChEMBL document CHEMBL3351836, “Inhibition of carbonic anhydrase isoforms I, II, IX and XII with novel Schiff bases: identification of selective inhibitors for the tumor-associated isoforms over the cytosolic ones” (Bioorg Med Chem, 2014)

Target: Carbonic anhydrase 9 (Homo sapiens, UniProt Q16790)
Assay: Inhibition of human CA-9 after 15 mins by stopped-flow CO2 hydration method

| Ki | Compound |
| --- | --- |
| 162 nM | NS(=O)(=O)c1ccc(/N=C/c2ccc(-c3ccccn3)cc2)cc1 |
| 165 nM | NS(=O)(=O)c1ccc(/N=C/c2ccco2)c(F)c1 |
| 244 nM | NS(=O)(=O)c1ccc(CC/N=C/c2ccc(-c3ccccc3)cc2)cc1 |
| 193 nM | NS(=O)(=O)c1ccc(CC/N=C/c2ccc(S(=O)(=O)O)o2)cc1 |
| 251 nM | NS(=O)(=O)c1ccc(CC/N=C/c2cccc(Br)c2O)cc1 |
| 1870 nM | COc1ccc(/C=N/CCc2ccc(S(N)(=O)=O)cc2)c(O)c1 |
| 154 nM | COc1cc([N+](=O)[O-])ccc1/C=N/CCc1ccc(S(N)(=O)=O)cc1 |
| 27.9 nM | NS(=O)(=O)c1ccc(CC/N=C/c2ccc(-c3ccccn3)cc2)cc1 |
| 23.6 nM | CSc1ccc(/C=N/CCc2ccc(S(N)(=O)=O)cc2)cc1 |
| 18.5 nM | N#Cc1ccc(/C=N/CCc2ccc(S(N)(=O)=O)cc2)cc1 |
| 1880 nM | NS(=O)(=O)c1ccc(CC/N=C/c2c[nH]c3ccc(Br)cc23)cc1 |
| 213 nM | NS(=O)(=O)c1ccc(CC/N=C/c2c(F)c(F)cc(F)c2F)cc1 |

| Compound | Ki |
| --- | --- |
| NS(=O)(=O)c1ccc(/N=C/c2ccc(Br)cc2O)cc1 | 28.1 nM |
| NS(=O)(=O)c1ccc(/N=C/c2csc3ccccc23)cc1 | 197 nM |
| NS(=O)(=O)c1ccc(/N=C/c2ccc(-c3ccccc3)cc2)c(F)c1 | 113 nM |
| NS(=O)(=O)c1ccc(CC/N=C/c2ccc(Br)cc2O)cc1 | 106 nM |
